From patent US20180244611A1, “Modulators of the Cystic Fibrosis Transmembrane Conductance Regulator Protein and Methods of Use” (AbbVie S.à.r.l., priority 2017, published 2018)

Legend:
F508delCFTR [1] = molecular target: T1, F508delCFTR (Homo sapiens, UniProt P13569, DEL508-508); experiment: Cell Surface Expression-Horse Radish Peroxidase (CSE-HRP) assay, test compound without co-corrector; format: cell-based; settings: for EC50: test compound without co-corrector; for Emax: maximum at any tested concentration, without co-corrector;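 for Emax: percent of on-plate 2 µM positive control corrector response over DMSO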
T1 construct: expressed in transfected cells; host or cells: CFBE41o- human lung-derived epithelial cells (CFBE41o-F508delCFTR-HRP), doxycycline-inducible
T1 sequence (P13569 with tags, fused parts or gaps DEL508-508): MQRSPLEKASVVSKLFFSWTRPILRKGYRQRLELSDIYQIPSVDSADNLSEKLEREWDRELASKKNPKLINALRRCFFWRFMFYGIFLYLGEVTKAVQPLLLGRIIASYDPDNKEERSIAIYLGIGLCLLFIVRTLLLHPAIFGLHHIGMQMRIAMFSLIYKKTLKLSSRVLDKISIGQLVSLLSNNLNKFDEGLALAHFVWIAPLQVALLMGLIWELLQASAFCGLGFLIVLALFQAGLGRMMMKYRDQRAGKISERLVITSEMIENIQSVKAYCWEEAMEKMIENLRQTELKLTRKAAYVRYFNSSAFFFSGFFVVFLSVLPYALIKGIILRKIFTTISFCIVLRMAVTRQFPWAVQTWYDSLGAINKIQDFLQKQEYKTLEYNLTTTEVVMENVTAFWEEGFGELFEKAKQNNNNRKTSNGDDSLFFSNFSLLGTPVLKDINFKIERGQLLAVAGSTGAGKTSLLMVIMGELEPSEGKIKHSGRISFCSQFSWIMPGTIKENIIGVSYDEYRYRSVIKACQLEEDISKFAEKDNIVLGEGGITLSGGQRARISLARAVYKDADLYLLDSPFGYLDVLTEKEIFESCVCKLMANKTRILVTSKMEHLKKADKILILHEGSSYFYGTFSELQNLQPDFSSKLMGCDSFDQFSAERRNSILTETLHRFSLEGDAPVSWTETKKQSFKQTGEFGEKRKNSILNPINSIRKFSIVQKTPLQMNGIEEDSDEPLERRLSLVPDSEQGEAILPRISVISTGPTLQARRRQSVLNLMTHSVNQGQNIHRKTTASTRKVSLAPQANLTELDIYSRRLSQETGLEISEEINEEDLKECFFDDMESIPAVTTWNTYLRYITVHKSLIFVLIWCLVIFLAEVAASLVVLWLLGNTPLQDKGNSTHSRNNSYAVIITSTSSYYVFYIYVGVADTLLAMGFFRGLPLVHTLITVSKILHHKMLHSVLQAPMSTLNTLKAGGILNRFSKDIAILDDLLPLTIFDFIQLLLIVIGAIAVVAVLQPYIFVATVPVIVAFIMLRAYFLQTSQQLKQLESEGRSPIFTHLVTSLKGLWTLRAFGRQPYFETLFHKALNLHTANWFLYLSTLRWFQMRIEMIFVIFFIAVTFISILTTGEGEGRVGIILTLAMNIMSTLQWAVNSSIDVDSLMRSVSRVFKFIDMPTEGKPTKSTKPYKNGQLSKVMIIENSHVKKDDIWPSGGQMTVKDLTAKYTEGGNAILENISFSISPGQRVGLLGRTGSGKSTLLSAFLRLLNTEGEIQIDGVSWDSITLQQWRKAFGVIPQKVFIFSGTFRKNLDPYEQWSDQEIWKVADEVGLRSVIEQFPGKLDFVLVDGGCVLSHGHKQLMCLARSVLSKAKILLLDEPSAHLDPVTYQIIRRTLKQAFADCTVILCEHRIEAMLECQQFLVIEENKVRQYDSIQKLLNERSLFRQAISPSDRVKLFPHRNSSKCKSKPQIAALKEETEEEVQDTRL
Summary of the method: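 CFBE41o- cells expressing F508delCFTR with HRP in the fourth exofacial loop, induced with 0.5 μg/mL doxycycline for 72 h at 37° C, then exposed to compound alone for 18-24 h at 33° C, 8-point 3-fold series from 20 μM. Surface HRP read by luminol luminescence, normalized to positive corrector control versus DMSO; EC50 from variable-slope sigmoidal fit of three replicate plates.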

F508delCFTR [2] = molecular target: T1, F508delCFTR; experiment: Cell Surface Expression-Horse Radish Peroxidase (CSE-HRP) assay, test compound with co-corrector; format: cell-based; settings: for Maximum % activity (with co-corrector): maximum at any tested concentration;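 for Maximum % activity (with co-corrector): percent of 2 µM positive control corrector over DMSO; co-corrector is that same compound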
Summary of the method: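 CFBE41o- cells expressing F508delCFTR with HRP in the fourth exofacial loop, induced with 0.5 μg/mL doxycycline for 72 h, then treated 18-24 h at 33° C. with compound (8 points, top 20 μM, 3-fold) plus 2 μM co-corrector. Surface HRP read by luminol luminescence; activity normalised to positive control, EC50 from variable-slope sigmoidal fit.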

[3] = normalized to on-plate positive control
[4] = CSE-HRP assay, test compound with 2 μM co-corrector
[5] = normalized to on-plate positive control, with 2 μM co-corrector
[6] = normalized to positive control, with 2 μM co-corrector

SMILES	EC50 (F508delCFTR [1]; CSE-HRP assay)	Emax (F508delCFTR [1]; [3])	EC50 (F508delCFTR [2]; [4])	Maximum % activity (with co-corrector) (F508delCFTR [2]; [5])	Emax (F508delCFTR [1]; normalized to positive control)	EC50 (F508delCFTR [1])	Maximum % activity (with co-corrector) (F508delCFTR [2]; [6])	EC50 (F508delCFTR [2]; with 2 μM co-corrector)
O=C(NS(=O)(=O)c1cccc2ccccc12)C1(CCN2CCCC2)CCc2c(Cl)cccc21 (centres unmarked) [Example III-111, 4-chloro-N-(naphthalene-1-sulfonyl)-1-[2-(pyrrolidin-1-yl)ethyl]-2,3-dihydro-1H-indene-1-carboxamide]	≥ 10 µM	< 50%	3 to 10 µM	+ (<150)				
COCCN(C)CCC1(C(=O)NS(=O)(=O)c2cccc3ccccc23)CCc2c(Cl)cccc21 (centres unmarked) [Example III-112, 4-chloro-1-{2-[(2-methoxyethyl)(methyl)amino]ethyl}-N-(naphthalene-1-sulfonyl)-2,3-dihydro-1H-indene-1-carboxamide]	3 to 10 µM	< 50%	3 to 10 µM	++ (≥150 and <350)				
CCC1(C(=O)N(C)S(=O)(=O)c2cccc3ccccc23)CCc2c(Cl)cccc21 (centres unmarked) [Example III-150, 4-chloro-1-ethyl-N-methyl-N-(naphthalene-1-sulfonyl)-2,3-dihydro-1H-indene-1-carboxamide]	≥ 10 µM	< 50%	≥ 10 µM	+ (<150)				
COCC1(C(=O)NS(=O)(=O)c2cccc3ccccc23)CCc2c(Cl)cccc21 (centres unmarked) [Example III-151, 4-chloro-1-(methoxymethyl)-N-(naphthalene-1-sulfonyl)-2,3-dihydro-1H-indene-1-carboxamide]	≥ 10 µM	< 50%	≥ 10 µM	+ (<150)				
N#CCC1(C(=O)NS(=O)(=O)c2cccc3ccccc23)CCc2c(Cl)cccc21 (centres unmarked) [Example III-155, 4-chloro-1-(cyanomethyl)-N-(naphthalene-1-sulfonyl)-2,3-dihydro-1H-indene-1-carboxamide]	3 to 10 µM	< 50%	3 to 10 µM	++ (≥150 and <350)				
N#CC1(C(=O)NS(=O)(=O)c2cccc3ccccc23)CCCc2cccc(Cl)c21 (centres unmarked) [Example III-157, 8-chloro-1-cyano-N-(naphthalene-1-sulfonyl)-1,2,3,4-tetrahydronaphthalene-1-carboxamide]	≥ 10 µM	< 50%	3 to 10 µM	++ (≥150 and <350)				
CC1(C(=O)NS(=O)(=O)c2ccccc2)CCc2c(Cl)cccc21 (centres unmarked) [II-1]					50 to 150%	3 to 10 µM	+++ (≥350)	3 to 10 µM
Cc1ccccc1S(=O)(=O)NC(=O)[C@@]1(C)CCc2ccc(Cl)cc21 [II-4]					< 50%	3 to 10 µM	++ (≥150 and <350)	3 to 10 µM
Cc1ccccc1S(=O)(=O)NC(=O)[C@]1(C)CCc2ccc(Cl)cc21 [II-5]					< 50%	3 to 10 µM	++ (≥150 and <350)	< 3 µM
O=C(NS(=O)(=O)c1ccccc1Cl)C1CCc2c(Cl)cccc21 (centres unmarked) [II-6]					50 to 150%	3 to 10 µM	++ (≥150 and <350)	3 to 10 µM
Cc1ccccc1S(=O)(=O)NC(=O)C1CCCc2ccccc21 (centres unmarked) [II-7]					< 50%	3 to 10 µM	++ (≥150 and <350)	3 to 10 µM
COc1cccc2c1CCCC2C(=O)NS(=O)(=O)c1ccccc1C (centres unmarked) [II-8]					50 to 150%	3 to 10 µM	++ (≥150 and <350)	3 to 10 µM
COc1ccc2c(c1OC)CCCC2C(=O)NS(=O)(=O)c1ccccc1C (centres unmarked) [II-9]					< 50%	≥ 10 µM	++ (≥150 and <350)	3 to 10 µM
Cc1ccccc1S(=O)(=O)NC(=O)C1CCCc2cccc(Cl)c21 (centres unmarked) [II-10]					50 to 150%	3 to 10 µM	++ (≥150 and <350)	3 to 10 µM
Cc1ccccc1S(=O)(=O)NC(=O)C1CCc2ccccc21 (centres unmarked) [II-11]					< 50%	≥ 10 µM	+ (<150)	3 to 10 µM
Cc1ccccc1S(=O)(=O)NC(=O)C1CCCc2cc(F)ccc21 (centres unmarked) [II-12]					< 50%	3 to 10 µM	++ (≥150 and <350)	3 to 10 µM

SMILES	EC50 (F508delCFTR [1]; CSE-HRP assay)	Emax (F508delCFTR [1]; [3])	EC50 (F508delCFTR [2]; [4])	Maximum % activity (with co-corrector) (F508delCFTR [2]; [5])	Emax (F508delCFTR [1]; normalized to positive control)	EC50 (F508delCFTR [1])	Maximum % activity (with co-corrector) (F508delCFTR [2]; [6])	EC50 (F508delCFTR [2]; with 2 μM co-corrector)
COc1cccc2c1CCC[C@H]2C(=O)NS(=O)(=O)c1ccccc1C [II-13]					50 to 150%	3 to 10 µM	+++ (≥350)	3 to 10 µM
Cc1ccccc1S(=O)(=O)NC(=O)[C@H]1CCCc2ccccc21 [II-14]					< 50%	3 to 10 µM	++ (≥150 and <350)	3 to 10 µM
COc1cc2c(cc1OC)C(C(=O)NS(=O)(=O)c1ccccc1C)CCC2 (centres unmarked) [II-15]					< 50%	≥ 10 µM	+ (<150)	3 to 10 µM
COc1cccc2c1CC(C(=O)NS(=O)(=O)c1ccccc1C)C2 (centres unmarked) [II-16]					< 50%	3 to 10 µM	++ (≥150 and <350)	3 to 10 µM
Cc1ccccc1S(=O)(=O)NC(=O)[C@@H]1CCCc2ccccc21 [II-17]					< 50%	3 to 10 µM	++ (≥150 and <350)	3 to 10 µM
COc1ccc2c(c1)[C@@](C)(C(=O)NS(=O)(=O)c1ccccc1C)CC2 [II-18]					< 50%	3 to 10 µM	++ (≥150 and <350)	3 to 10 µM
Cc1ccccc1S(=O)(=O)NC(=O)C1(C)CCc2cccc(Cl)c21 (centres unmarked) [II-19]					50 to 150%	3 to 10 µM	++ (≥150 and <350)	3 to 10 µM
Cc1ccccc1S(=O)(=O)NC(=O)C1(C)CCc2c1ccc(F)c2F (centres unmarked) [II-20]					< 50%	3 to 10 µM	++ (≥150 and <350)	3 to 10 µM
Cc1ccccc1S(=O)(=O)NC(=O)C1(C)CCc2ccccc21 (centres unmarked) [II-21]					< 50%	3 to 10 µM	++ (≥150 and <350)	3 to 10 µM
Cc1ccc2c(c1)CCC2(C)C(=O)NS(=O)(=O)c1ccccc1C (centres unmarked) [II-22]					50 to 150%	3 to 10 µM	++ (≥150 and <350)	3 to 10 µM
CCc1ccccc1S(=O)(=O)NC(=O)C1CCc2c(OC)cccc21 (centres unmarked) [II-24]					< 50%	3 to 10 µM	++ (≥150 and <350)	3 to 10 µM
CCc1ccccc1S(=O)(=O)NC(=O)C1CCc2c(Cl)cccc21 (centres unmarked) [II-25]					50 to 150%	3 to 10 µM	++ (≥150 and <350)	3 to 10 µM
O=C(NS(=O)(=O)c1cccc(Cl)c1)C1CCc2c(Cl)cccc21 (centres unmarked) [II-26]					< 50%	≥ 10 µM	++ (≥150 and <350)	3 to 10 µM
O=C(NS(=O)(=O)c1ccc(Cl)cc1)C1CCc2c(Cl)cccc21 (centres unmarked) [II-27]					< 50%	≥ 10 µM	++ (≥150 and <350)	3 to 10 µM
O=C(NS(=O)(=O)c1ccccc1F)C1CCc2c(Cl)cccc21 (centres unmarked) [II-28]					< 50%	3 to 10 µM	++ (≥150 and <350)	3 to 10 µM
COc1cccc2c1CCC2C(=O)NS(=O)(=O)c1ccccc1Cl (centres unmarked) [II-30]					< 50%	3 to 10 µM	++ (≥150 and <350)	3 to 10 µM
